Assay results published in ChEMBL document CHEMBL1151877, “Examination of halogen substituent effects on HIV-1 integrase inhibitors derived from 2,3-dihydro-6,7-dihydroxy-1H-isoindol-1-ones and 4,5-dihydroxy-1H-isoindole-1,3(2H)-diones” (Bioorg Med Chem Lett, 2009).

Columns and labels:
[1] = molecular target: T1, Human immunodeficiency virus type 1 integrase (Human immunodeficiency virus 1, UniProt Q7ZJM1); test: Inhibition of HIV1 integrase 3'-processing activity in presence of magnesium
[2] = test system: Human immunodeficiency virus 1; test: Antiviral activity against VSV-g-pseudotyped HIV1 assessed as inhibition of viral infection in human HOS cells pretreated for 3 hrs before viral infection by luciferase reporter gene assay; type: functional, organism-based; details: Human immunodeficiency virus 1, HOS
[3] = molecular target: T1, Human immunodeficiency virus type 1 integrase; test: Inhibition of HIV1 integrase strand transfer activity in presence of magnesium
[4] = test system: HOS; test: Cytotoxicity against human HOS cells; type: cell-based
[5] = molecular target: Human immunodeficiency virus type 1 integrase (Human immunodeficiency virus 1) (UniProt Q7ZJM1); test: Selectivity ratio of IC50 for HIV1 integrase strand transfer activity to IC50 for HIV1 integrase 3'-processing activity
Human immunodeficiency virus type 1 integrase (Human immunodeficiency virus 1), sequence (Q7ZJM1 as listed by the source): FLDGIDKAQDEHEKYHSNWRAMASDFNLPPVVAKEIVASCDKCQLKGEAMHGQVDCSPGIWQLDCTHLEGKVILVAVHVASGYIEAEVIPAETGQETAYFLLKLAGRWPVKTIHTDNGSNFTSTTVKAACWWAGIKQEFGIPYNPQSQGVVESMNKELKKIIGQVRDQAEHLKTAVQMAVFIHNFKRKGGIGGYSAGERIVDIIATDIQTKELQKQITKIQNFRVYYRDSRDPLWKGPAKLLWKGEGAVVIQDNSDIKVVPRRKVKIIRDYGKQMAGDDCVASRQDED

T1 sequence (Q7ZJM1 whole entry): as the sequence (Q7ZJM1 as listed by the source) above

SMILES | IC50 [1] | EC50 [2] | IC50 [3] | IC50 [4] | Ratio IC50 [5]
O=C1c2c(ccc(O)c2O)CN1Cc1cc(F)ccc1F | > 333 µM | 1240 nM | 27000 nM | 13.4 µM | –
O=C1c2c(ccc(O)c2O)CN1Cc1c(F)c(F)c(F)c(F)c1F | 230 µM | – | 8000 nM | – | –
O=C1c2ccc(O)c(O)c2C(=O)N1Cc1cccc(F)c1 | 11 µM | – | 300 nM | – | –
O=C1c2ccc(O)c(O)c2C(=O)N1Cc1ccc(F)c(Br)c1 | 11 µM | – | 900 nM | – | –
O=C1c2ccc(O)c(O)c2C(=O)N1Cc1ccccc1 | 72 µM | 11200 nM | 400 nM | – | –
O=C1c2ccc(O)c(O)c2C(=O)N1Cc1c(F)ccc(F)c1Cl | 34 µM | – | 4000 nM | – | –
O=C1c2ccc(O)c(O)c2C(=O)N1Cc1ccccc1F | 68 µM | – | 2000 nM | – | –
O=C1c2c(ccc(O)c2O)CN1Cc1ccc(F)cc1Cl | > 333 µM | – | 2500 nM | – | 700
O=C1c2c(ccc(O)c2O)CN1Cc1cc(F)c(F)c(F)c1 | 99 µM | – | 4000 nM | – | –
O=C1c2c(ccc(O)c2O)CN1Cc1c(F)cccc1F | 71 µM | – | 20000 nM | – | –
O=C1c2c(ccc(O)c2O)CN1Cc1ccc(F)c(Br)c1 | 34 µM | – | 1000 nM | – | –
O=C1c2ccc(O)c(O)c2C(=O)N1Cc1cc(F)cc(F)c1 | 48 µM | – | 400 nM | – | –
O=C1c2ccc(O)c(O)c2C(=O)N1Cc1cc(F)c(F)cc1F | 54 µM | – | 500 nM | – | –
O=C1c2c(ccc(O)c2O)CN1Cc1cccc(Cl)c1F | 36 µM | 620 nM | 2000 nM | 9.43 µM | –
O=C1c2c(ccc(O)c2O)CN1Cc1ccc(Cl)c(F)c1 | 97 µM | – | 6000 nM | – | –
O=C1c2c(ccc(O)c2O)CN1Cc1cc(F)c(F)cc1F | > 333 µM | – | 3700 nM | – | –
O=C1c2c(ccc(O)c2O)CN1Cc1cccc(I)c1 | 169 µM | 1070 nM | 4000 nM | 6.92 µM | –
O=C1c2ccc(O)c(O)c2C(=O)N1Cc1cc(Cl)c(F)cc1F | 79 µM | 4430 nM | 400 nM | 13.7 µM | –
O=C1c2c(ccc(O)c2O)CN1Cc1ccc(Cl)c(Cl)c1 | 89 µM | 3300 nM | 100 nM | 5.68 µM | –
O=C1c2ccc(O)c(O)c2C(=O)N1Cc1c(F)c(F)c(F)c(F)c1F | 41 µM | – | 1300 nM | – | –
O=C1c2c(ccc(O)c2O)CN1Cc1cc(Cl)c(F)cc1F | > 333 µM | 650 nM | 4400 nM | 8.38 µM | –
O=C1c2ccc(O)c(O)c2C(=O)N1Cc1ccc(F)c(F)c1F | 18 µM | – | 800 nM | – | –
O=C1c2c(ccc(O)c2O)CN1Cc1c(F)ccc(F)c1Cl | > 333 µM | – | 8900 nM | – | –
Cc1cc(CN2C(=O)c3ccc(O)c(O)c3C2=O)ccc1F | 11 µM | – | 800 nM | – | –
O=C1c2c(ccc(O)c2O)CN1Cc1ccc(F)cc1F | 37 µM | – | 500 nM | – | –
O=C1c2ccc(O)c(O)c2C(=O)N1Cc1ccc(Cl)c(F)c1 | 58 µM | – | 900 nM | – | –
O=C1c2ccc(O)c(O)c2C(=O)N1Cc1c(F)cccc1Cl | 54 µM | – | 3500 nM | – | –
O=C1c2ccc(O)c(O)c2C(=O)N1Cc1ccc(F)cc1 | 8 µM | 860 nM | 5000 nM | – | –

SMILES | IC50 [1] | EC50 [2] | IC50 [3] | IC50 [4] | Ratio IC50 [5]
O=C1c2ccc(O)c(O)c2C(=O)N1Cc1ccc(F)c(F)c1 | 27 µM | 5880 nM | 100 nM | 7.94 µM | –
O=C1c2c(ccc(O)c2O)CN1Cc1ccc(F)c(Cl)c1 | – | 480 nM | – | 6.87 µM | –
O=C1c2ccc(O)c(O)c2C(=O)N1Cc1ccc(Cl)c(Cl)c1 | 18 µM | 2330 nM | 120 nM | 4.43 µM | –
O=C1c2ccc(O)c(O)c2C(=O)N1Cc1ccc(F)c(Cl)c1 | 14 µM | 2830 nM | 170 nM | 9.54 µM | –
O=C1c2ccc(O)c(O)c2C(=O)N1Cc1cc(Cl)ccc1F | 9 µM | – | 310 nM | – | –
Cc1cc(CN2Cc3ccc(O)c(O)c3C2=O)ccc1F | 17 µM | – | 900 nM | – | –
O=C1c2ccc(O)c(O)c2C(=O)N1Cc1cc(F)c(F)c(F)c1 | 10 µM | – | 600 nM | – | –
O=C1c2c(ccc(O)c2O)CN1Cc1ccc(F)c(F)c1F | 153 µM | – | 2700 nM | – | –
O=C1c2ccc(O)c(O)c2C(=O)N1Cc1c(F)ccc(F)c1F | 158 µM | – | 1800 nM | – | –
O=C1c2c(ccc(O)c2O)CN1Cc1cccc(Cl)c1 | 72 µM | 540 nM | 4000 nM | 9.02 µM | –
O=C1c2ccc(O)c(O)c2C(=O)N1Cc1cccc(Br)c1 | 16 µM | 3780 nM | 400 nM | 11.4 µM | –
O=C1c2c(ccc(O)c2O)CN1Cc1cc(F)cc(F)c1 | 233 µM | 2420 nM | 300 nM | 17.2 µM | –
O=C1c2ccc(O)c(O)c2C(=O)N1Cc1cccc(I)c1 | 85 µM | 7770 nM | 1000 nM | 12 µM | –
O=C1c2c(ccc(O)c2O)CN1Cc1cccc(F)c1 | 238 µM | 1060 nM | 21000 nM | 8.6 µM | –
O=C1c2c(ccc(O)c2O)CN1Cc1ccccc1F | > 333 µM | – | 25000 nM | – | –
O=C1c2c(ccc(O)c2O)CN1Cc1cccc(Br)c1 | 264 µM | 590 nM | 3000 nM | 7.24 µM | –
O=C1c2c(ccc(O)c2O)CN1Cc1cc(Cl)ccc1F | 18 µM | – | 1200 nM | – | –
O=C1c2c(ccc(O)c2O)CN1Cc1cccc(F)c1F | 72 µM | – | 700 nM | – | –
O=C1c2ccc(O)c(O)c2C(=O)N1Cc1c(F)cccc1F | 103 µM | – | 2000 nM | – | –
O=C1c2c(ccc(O)c2O)CN1Cc1c(F)cccc1Cl | > 333 µM | – | 18000 nM | – | –
O=C1c2ccc(O)c(O)c2C(=O)N1Cc1cccc(Cl)c1F | 25 µM | 2740 nM | 2000 nM | 11.5 µM | –
O=C1c2c(ccc(O)c2O)CN1Cc1ccc(F)c(F)c1 | 72 µM | 1080 nM | 900 nM | 9.01 µM | –
O=C1c2c(ccc(O)c2O)CN1Cc1c(F)ccc(F)c1F | > 333 µM | – | 25000 nM | – | –
O=C1c2ccc(O)c(O)c2C(=O)N1Cc1cccc(Cl)c1 | 14 µM | 4200 nM | 400 nM | 13.3 µM | –
O=C1c2ccc(O)c(O)c2C(=O)N1Cc1ccc(F)cc1F | 16 µM | – | 300 nM | – | –
O=C1c2ccc(O)c(O)c2C(=O)N1Cc1ccc(F)cc1Cl | 90 µM | – | 1300 nM | – | –
O=C1c2ccc(O)c(O)c2C(=O)N1Cc1cc(F)ccc1F | 60 µM | – | 230 nM | – | –
